Data on three compounds can be found in patent publication US5726165A, “Derivatives of 4-(2-aminoethyl)phenoxymethyl-phosphonic and -phosphinic acid and pharmaceutical and veterinary uses therefor” (SmithKline Beecham p.l.c., priority 1994, dated 1998).

Counter-ions that a name gives are not always drawn.

The target of one assay is T1, human β1-adrenoceptor (Homo sapiens, UniProt P08588).
T1 construct: expressed in transfected cells; host or cells: CHO cells (stably transfected subclones; membranes)
T1 sequence (P08588 whole entry): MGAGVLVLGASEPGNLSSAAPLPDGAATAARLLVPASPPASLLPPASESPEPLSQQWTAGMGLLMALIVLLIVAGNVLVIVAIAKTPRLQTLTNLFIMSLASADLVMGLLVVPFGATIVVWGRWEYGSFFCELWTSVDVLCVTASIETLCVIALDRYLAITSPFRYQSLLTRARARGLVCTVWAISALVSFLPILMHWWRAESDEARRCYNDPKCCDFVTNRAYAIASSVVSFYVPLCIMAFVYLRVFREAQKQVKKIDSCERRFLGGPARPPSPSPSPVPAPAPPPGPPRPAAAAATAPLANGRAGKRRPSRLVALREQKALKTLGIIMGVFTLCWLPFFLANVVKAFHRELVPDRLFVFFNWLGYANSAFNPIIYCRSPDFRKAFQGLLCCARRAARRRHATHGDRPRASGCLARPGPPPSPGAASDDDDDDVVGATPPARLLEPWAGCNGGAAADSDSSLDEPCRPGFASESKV
Kind of assay: Antagonist binding at β1-adrenoceptors, displacement of [125I]-iodocyanopindolol. The following applies: CHO cell plasma membranes; from binding IC50 by Cheng-Prusoff equation; read-out: Beta-1 Ki. On the procedure: (§1) Antagonist and Agonist Activity at Human β1, β2, and β3 -Adrenoceptors.
(§2) Subclones of CHO cells are stably transfected with each of the human β1, β2 and β3 -adrenoceptors^1. Cells are then disrupted by immersion in ice-cold lysis buffer (10 mM TRIS, 2 mM EDTA, pH 7.4) containing protease inhibitors leupeptin and benzamidine (5 μg/ml) and soyabean trypsin inhibitor (10 μg/ml). Membranes are prepared by the method of Bouvier el. al.^2 and stored in 1 ml aliquots in liquid N2 for future use.
(§3) Antagonist Binding at β1, and β2 -Adrenoceptors
(§4) Displacement of [^125 I]-iodocyanopindolol from CHO cell plasma membranes transfected with either the human β1, or β2 -adrenoceptors is carried out by the method of Blin et. al.^5. Ki values (nM) are calculated from the binding IC50 values for each agonist, using the Cheng-Prusoff equation.
On the technique in general: Loss of bound radioactivity is the signal in a displacement assay; it reports binding, not function.

The target in another assay is T2, human β3-adrenoceptor (Homo sapiens, UniProt P13945).
T2 construct: expressed in transfected cells; host or cells: CHO cells (stably transfected subclones; membranes)
T2 sequence (P13945 whole entry): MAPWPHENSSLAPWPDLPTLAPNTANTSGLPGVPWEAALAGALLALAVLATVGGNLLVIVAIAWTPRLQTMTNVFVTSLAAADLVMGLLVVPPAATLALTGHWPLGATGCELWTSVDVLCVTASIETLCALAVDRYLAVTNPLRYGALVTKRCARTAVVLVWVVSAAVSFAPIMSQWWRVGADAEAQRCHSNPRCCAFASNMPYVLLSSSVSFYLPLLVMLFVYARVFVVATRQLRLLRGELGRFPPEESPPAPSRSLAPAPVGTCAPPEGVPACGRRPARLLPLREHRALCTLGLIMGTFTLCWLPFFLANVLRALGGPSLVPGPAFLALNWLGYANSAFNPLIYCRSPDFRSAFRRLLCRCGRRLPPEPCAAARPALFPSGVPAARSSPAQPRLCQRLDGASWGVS
In words: β3-adrenoceptor-mediated adenylyl cyclase activity (agonist). It is filed as biochemical. The settings on record: CHO cell plasma membranes; for EC50: agonist concentration producing 50% activation of adenylyl cyclase, cAMP over 20 minutes, read-out: Beta-3 EC50; for Emax: maximum response relative to that produced by (-) isoprenaline, read-out: Beta-3 (IA), intrinsic activity. As to the method: as §1, §2
β3 -Adrenoceptor-Mediated Adenylyl Cyclase Activity
Adenylyl cyclase activity is assayed by the method of Kirkham et. al.^3 by the addition of 40 μl (70-80 μg protein) to the incubation medium of the above CHO cell plasma membranes transfected with the human β3 -adrenoceptor. cAMP produced over 20 minutes is separated from ATP by the method of Salomon et al.^4. Agonist EC50 values and intrinsic activities are expressed as the concentration of agonist producing 50% activation of adenylyl cyclase and the maximum response produced by each agonist relative to that produced by (-) isoprenaline respectively.

The next assay has as its target T3, human β2-adrenoceptor (Homo sapiens, UniProt P07550).
T3 construct: expressed in transfected cells; host or cells: CHO cells (stably transfected subclones; membranes)
In words: Antagonist binding at β2-adrenoceptors, displacement of [125I]-iodocyanopindolol. The following applies: CHO cell plasma membranes; from binding IC50 by Cheng-Prusoff equation; read-out: Beta-2 Ki. On the procedure:
as §1, §2, §3, §4

T3 sequence (P07550 whole entry): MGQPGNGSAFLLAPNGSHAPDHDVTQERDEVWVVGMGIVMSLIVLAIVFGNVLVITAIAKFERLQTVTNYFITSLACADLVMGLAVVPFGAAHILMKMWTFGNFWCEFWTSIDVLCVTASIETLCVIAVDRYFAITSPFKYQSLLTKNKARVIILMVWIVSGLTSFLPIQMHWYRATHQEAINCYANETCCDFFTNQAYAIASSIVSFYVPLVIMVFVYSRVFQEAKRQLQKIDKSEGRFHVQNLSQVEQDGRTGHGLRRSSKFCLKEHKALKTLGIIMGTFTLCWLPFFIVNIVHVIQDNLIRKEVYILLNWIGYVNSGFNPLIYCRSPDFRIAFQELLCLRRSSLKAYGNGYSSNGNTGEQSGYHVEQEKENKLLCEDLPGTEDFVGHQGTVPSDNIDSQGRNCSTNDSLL

As to `C[C@H](Cc1ccc(OCP(=O)(O)c2ccccc2)cc1)NC[C@H](O)COc1ccc(O)c(CO)c1` (racemic) [Example 21, (SR)-4-{2-[2-Hydroxy-3-(4-hydroxy-3-hydroxymethylphenoxy)propylamino]propyl}phenoxymethyl-phenylphosphinic acid, lithium salt], the Ki (in general, a dissociation constant, usually derived from enzyme kinetics or from competition with a known ligand) at human β1-adrenoceptor came out at 155 µM; at human β2-adrenoceptor it was 15 µM. Also, at human β3-adrenoceptor, the EC50 is 1.26 µM. The Emax on human β3-adrenoceptor was above 100%.

Turning to `C[C@H](Cc1ccc(OCP(=O)(O)OCCCOCc2ccccc2)cc1)NC[C@H](O)COc1ccc(O)c(CO)c1` [Example 17, (SR)-4-{2-[2-Hydroxy-3-(4-hydroxy-3-hydroxymethylphenoxy)propylamino]propyl}phenoxymethylphosphonic acid, (3-benzyloxypropyl)ester, lithium salt], at human β1-adrenoceptor, the Ki came to 21 µM. Moreover, on human β3-adrenoceptor, the EC50 was found to be 1.1 µM and the Emax was found to be 70%. For the same compound, at human β2-adrenoceptor, the Ki came out at 10 µM.

Regarding `O=P(O)(COc1ccc(CCNC[C@H](O)COc2ccc(O)cc2)cc1)C1CCCCC1` [Example 29, (S)-4-{2-[2-Hydroxy-3-(4-hydroxyphenoxy)propylamino]ethyl}phenoxymethylcyclohexylphosphinic acid, lithium salt], the results for the Ki at human β1-adrenoceptor and at human β2-adrenoceptor were 288 µM and 269 µM, respectively. For the same compound, the EC50 at human β3-adrenoceptor was 1.7 µM. The Emax at human β3-adrenoceptor was determined as 72%.
